Target: T1, rat CB2 (Rattus norvegicus, UniProt Q9QZN9)
T1 sequence (Q9QZN9 1-360): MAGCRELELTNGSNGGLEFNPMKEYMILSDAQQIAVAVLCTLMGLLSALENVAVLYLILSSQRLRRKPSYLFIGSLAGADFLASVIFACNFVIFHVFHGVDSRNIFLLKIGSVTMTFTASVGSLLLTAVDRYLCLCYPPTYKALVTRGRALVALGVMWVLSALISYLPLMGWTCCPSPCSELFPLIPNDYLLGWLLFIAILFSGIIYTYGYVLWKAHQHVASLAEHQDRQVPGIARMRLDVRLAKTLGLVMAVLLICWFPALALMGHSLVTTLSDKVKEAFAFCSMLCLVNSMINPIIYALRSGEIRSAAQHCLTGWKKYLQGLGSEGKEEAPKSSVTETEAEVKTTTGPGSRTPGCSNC
Experiment: [3H]CP55,940 radioligand competition binding, membranes of HEK/GIRK cells expressing rat CB2
Design: expressed in transfected cells; host or cells: HEK293 cells stably co-expressing GIRK1/2 channels
Description: Agonists that bind to the receptor at the site occupied by the endogenous ligand (2-AG in this case) are considered orthosteric agonists. It is also possible for an agonist to bind and activate a receptor via a site other than the orthosteric site; these ligands are classified as allosteric agonists. To characterize the nature of the agonist activity of mycophenolate mofetil, we tested its ability to bind to the receptor in equilibrium binding assays using membranes harvested from cells expressing rCB2 using the radioligand [^3H]CP55,940 [40, 60]. CP55,940 has an affinity for both CB1 and CB2 receptors in the low nM range and is reported to bind to the site occupied by 2-AG [61].
Competition binding concentration–response curves were obtained in the presence of 0.5 nM [^3H]CP55,940 using membranes harvested from HEK/GIRK cells expressing rCB2. Data represent the mean ± SEM of three independent experiments run in triplicate. Data are plotted as a percentage of specific [^3H]CP55,940 binding. Non-specific binding was determined in the presence of 10 µM CP55,940.
Membranes were made from HEK/GIRK cells stably expressing rat CB2. Radioligand competition binding assays were performed as previously described, with minor modifications. In brief, compounds were serially diluted into assay buffer with 0.1% bovine serum albumin (BSA) and added to each well of a 96-well plate, along with 20 μg/well cell membrane and approximately 500 pM [^3H]-CP55,940 (specific activity = 104 Ci/mmol, PerkinElmer, Waltham, MA, USA). Following a 3-h incubation period on a shaker at room temperature, membrane-bound ligand was separated from free ligand by filtration through glass fiber 96-well filter plates (Unifilter-96, GF/B; PerkinElmer, Waltham, MA, USA). Forty microliters of scintillation fluid were added to each well, and membrane-bound radioactivity was determined by scintillation counting (Microbeta2; Revvity, Waltham, MA, USA). Nonspecific binding was determined using 10 μM of cold CP55,940.

Row | SMILES | Ki | rCB2 Binding Affinity pKi ± SEM (0.5 nM [3H]CP55,940, equilibrium)
1 | CCCCC/C=C\C/C=C\C/C=C\C/C=C\CCCC(=O)OC(CO)CO [2-AG, 2-Arachidonoylglycerol] | 3.47 µM | 
2 | COc1ccc(C(=O)c2c(C)n(CCN3CCOCC3)c3cc(I)ccc23)cc1 [AM630] |  | 7.61 ± 0.29

Reference: paper PMC12112332, “Characterization of Novel and Known Activators of Cannabinoid Receptor Subtype 2 Reveals Mixed Pharmacology That Differentiates Mycophenolate Mofetil and GW-842,166X from MDA7” (International Journal of Molecular Sciences, 2025)
